Source: US4440757A, “Pharmaceutical composition comprising derivative of aminobenzoic acid for regulating prostaglandin” (priority 1978, dated 1984)

Columns and labels:
[1] = test system: spontaneously hypertensive (SHR) male rats; test: Effect of indomethacin on the hypotensive action; format: in vivo, rat (SHR); conditions: 100 mg/kg p.o.; indomethacin 2.5 mg/kg before and after
From the text: It is known that PGs are produced from arachidonic acid, and cyclooxygenase participates in the conversion of arachidonic acid to PGG2, that indomethacin inactivates the above-mentioned cyclooxygenase and further that the […] of PGs is completely stopped by the administration of indomethacin.
Accordingly, the transition of blood pressure of the spontaneously hypertensive (SHR) male rats 30 to 40 weeks after birth was compared in both cases (1) where only the present substance was administered at a rate of 100 mg/kg and (2) where indomethacin was administered 2 times at a rate of 2.5 mg/kg/time before and after the administration of the present substance. The present substance, Specimen No. 7, was dissolved into distilled water or dispersed in an aqueous 2% solution of carboxymethylcellulose, and forcibly administered orally. Indomethacin was dispersed in an aqueous 2% solution of carboxymethylcellulose, and the dispersion was also forcibly administered orally, one hour before and after the administration of the present substance.

[2] = test system: human dinuclear leukemia J-111 strain; test: PGs in culture medium of human leukemia cells; format: cell-based; conditions: 50, 500 or 5,000 μg/ml, 7 days
Experimental: To each 10 ml of a culture medium prepared by adding 10% of bovine foetal serum and one of the present substance, Specimen No. 7, at a concentration of 50, 500 or 5,000 μg/ml to Eagle's culture medium and placed in a polystyrene flask of 75 cm^2 in bottom surface, 5×10^5 cultured cells of human dinuclear leukemia J-111 strain were inoculated and cultured at 37° C. under a mixed atmosphere of 5% by volume of gaseous […] and 95% by volume of air for 7 days. During the cultivation, the culture medium was replaced on the second day and the fourth day with respective fresh ones, and each spent medium was subjected to centrifugation as soon as possible at a temperature of 4° C. at 1,500 rpm to obtain each supernatant liquid of cultured medium. The content of PGE and PGF2-α in each supernatant liquid was determined by ^3 H-Prostaglandin E Radioimmunoassay Kit and ^3 H-Prostaglandin F Radioimmunoassay Kit (manufactured by Clinical assay Co. U.S.A.).

[3] = test system: HeLa S3 cultured cells of human uterine cancer; test: PGE in culture medium of human uterine cancer cells; format: cell-based; conditions: for Concentration of PGE after culture: 2 days, control 312; for Change of Concentration of PGE during culture: control +120
Experimental: To each 10 ml of a culture medium prepared by adding 10% bovine foetal serum and one of the present substance, Specimen No. 7, at a concentration of 0 (control), 10, 100, 500, 1,000 or 5,000 μg/ml to Eagle's culture medium and placed in a polystyrene flask of 75 cm^2 in bottom surface, HeLa S3 cultured cells of human uterine cancer were inoculated at a rate of 5×10^5 cells/flask and cultured at 37° C. for 2 days under a mixed atmosphere of 5% by volume of gaseous carbon dioxide and 95% by volume of air. After the incubation was over, the whole cultured medium was centrifugated at a temperature of 4° C. at 1,500 rpm to obtain a supernatant liquid of the cultured medium. The content of PGE in the supernatant liquid was determined by ^3 H-Prostaglandin E Radioimmunoassay Kit.

Sato's lung cancer = test: Translocation of dye-staff to Sato's lung cancer; format: in vivo, donryu rat; conditions: 1000 mg/kg p.o. once; control 30.0
Experimental: On the back of a donryu rat, a lump of Sato's lung cancer of 5 mm in size was subcutaneously transplanted.
(§1) On the axillary part of an ICR mouse, 10^6 cells of sarcoma 180 were subcutaneously transplanted. While feeding the both animals, the present substance, Specimen No. 7, was forcibly administered orally once at a rate of 1000 mg/kg on 16th day of the transplantation and an aqueous 2% solution of Lissamine Green (a dye-staff manufactured by Imperial Chem. Ind. Co.) was injected into the caudal vein of the animal at a rate of 1 ml for a rat and 0.5 ml for a mouse.
(§2) After one hour of the injection, the animal was sacrificed to extirpate the proliferated tumour. The tumour of the rat was finely cut and homogenized with an aqueous 50% solution of ethanol. After diluting the homogenate with an addition of the solution to a total volume of 50 ml, the liquid was centrifugated for 15 min at 1000 rpm to separate the supernatant liquid. The content of the dye-staff was determined on the supernatant liquid itself or after dilution by spectrophotometry using its absorption maximum of 630 nm.

sarcoma 180 = test: Translocation of dye-staff to sarcoma 180 (visual); format: in vivo, ICR mouse; conditions: 1000 mg/kg p.o. once
Experimental: as §1, §2

MH-134 tumor = test: Preventing the metastasis of a transplanted tumour; format: in vivo, C3H/He mouse; conditions: for Number of metastatic lesion: not administered 4.5
Experimental: Cells of MH-134 tumor were transplanted to a C3 H/He mouse from its caudal vein at a rate of 2×10^6 cells/animal. The present substance, Specimen No. 7, was administered to the mouse respectively, 6, 3 and one hours before, and 1, 3 and 6 hours after the transplantation once at a rate of 1000 mg/kg forcibly p.o.
The mouse was sacrificed on 14th day of the transplantation to extirpate the lungs to examine the number of the metastatic lesion.

[4] = test system: sarcoma induced by methylcholanthrene; 6-keto PGF1α; test: Level of 6-keto PGF1α in plasma of sarcoma-bearing rats; format: in vivo, spontaneous hypertensive rats (SHR); conditions: 500 mg/kg/day i.p., 6 days
Experimental: Cells of sarcoma induced by methylcholanthrene were transplanted on the back of a group of spontaneous hypertensive rats (SHR) subcutaneously at a rate of 1×10^6 cells/animal, and while feeding the rats, the present substance, Specimen No. 7, was daily administered intraperitoneally for consecutive 6 days from after 24 hours of the transplantation at a rate of 500 mg/kg/day. After 2 weeks of the ending of administration, whole blood was collected to obtain a fraction of plasma. The ether-extract of the plasma was separated by thin layer chromatography and after converting the extract into a methyloximesilyl derivative, the variation of the level 6-keto PGF1α in the extract was examined by gas-chromatography and masspectroscopy.

## O=C(O)c1ccc(NC2OC[C@@H](O)[C@H](O)[C@H]2O)cc1 (stereo partly drawn) [Specimen No. 7, Sodium p-aminobenzoate-N--D-xyloside]
[1]
  hypotensive effect with indomethacin (FIG. 9): disappeared
[2]
  rate of decrease of PGE (FIG. 13): the rate of decrease of PGE was raised as the concentration of the present substance was increased
  rate of increase of PGF2-α (FIG. 12): the rate of increase of PGF2-α was reduced as the concentration of the present substance was increased
[3]; 10 μg/ml
  Concentration of PGE after culture: 40 pg/mL
  Change of Concentration of PGE during culture: -152 pg/mL
[3]; 100 μg/ml
  Concentration of PGE after culture: 80 pg/mL
  Change of Concentration of PGE during culture: -112 pg/mL
[3]; 500 μg/ml
  Concentration of PGE after culture: 48 pg/mL
  Change of Concentration of PGE during culture: -144 pg/mL
[3]; 1000 μg/ml
  Concentration of PGE after culture: 25 pg/mL
  Change of Concentration of PGE during culture: -167 pg/mL
[3]; 5000 μg/ml
  Concentration of PGE after culture: 25 pg/mL
  Change of Concentration of PGE during culture: -167 pg/mL
Sato's lung cancer
  Amount of dye-staff: 51.0 μg/g tumour
Sarcoma 180
  sedimentation of the dye-staff in the central part of the tumour (visual): remarkable sedimentation of the dye-staff in the central part of the tumour
MH-134 tumor; 1000 mg/kg p.o. 1 hour after, printed 7/10
  Rate of positive metastasis: 70%
MH-134 tumor; 1000 mg/kg p.o. 1 hour before, printed 7/9
  Rate of positive metastasis: 77.8%
MH-134 tumor; 1000 mg/kg p.o. 3 hours after, printed 9/10
  Rate of positive metastasis: 90%
MH-134 tumor; 1000 mg/kg p.o. 3 hours before, printed 8/9
  Rate of positive metastasis: 88.9%
MH-134 tumor; 1000 mg/kg p.o. 6 hours after, printed 10/10
  Rate of positive metastasis: 100%
MH-134 tumor; 1000 mg/kg p.o. 6 hours before transplantation, printed 10/10
  Rate of positive metastasis: 100%
MH-134 tumor; 1 hour after
  Number of metastatic lesion: 2.6
MH-134 tumor; 1 hour before
  Number of metastatic lesion: 2.2
MH-134 tumor; 3 hours after
  Number of metastatic lesion: 3.0
MH-134 tumor; 3 hours before
  Number of metastatic lesion: 1.9
MH-134 tumor; 6 hours after
  Number of metastatic lesion: 3.5
MH-134 tumor; 6 hours before
  Number of metastatic lesion: 2.3
[4]
  level of 6-keto PGF1 in the blood of cancer-bearing rat (FIG. 14): almost same as in normal rat
